Molecular target: T1, full length human Androgen Receptor (AR) (Homo sapiens, UniProt P10275)
T1 construct: transiently transfected in T225 cm^2 flasks with a full length human Androgen Receptor (AR) cDNA; expressed in transfected cells; host or cells: CV-1 cells (ATCC CCL-70), transiently transfected with AR cDNA in pcDNA3 and ARE-luciferase in pGL3
T1 sequence (P10275 1-920): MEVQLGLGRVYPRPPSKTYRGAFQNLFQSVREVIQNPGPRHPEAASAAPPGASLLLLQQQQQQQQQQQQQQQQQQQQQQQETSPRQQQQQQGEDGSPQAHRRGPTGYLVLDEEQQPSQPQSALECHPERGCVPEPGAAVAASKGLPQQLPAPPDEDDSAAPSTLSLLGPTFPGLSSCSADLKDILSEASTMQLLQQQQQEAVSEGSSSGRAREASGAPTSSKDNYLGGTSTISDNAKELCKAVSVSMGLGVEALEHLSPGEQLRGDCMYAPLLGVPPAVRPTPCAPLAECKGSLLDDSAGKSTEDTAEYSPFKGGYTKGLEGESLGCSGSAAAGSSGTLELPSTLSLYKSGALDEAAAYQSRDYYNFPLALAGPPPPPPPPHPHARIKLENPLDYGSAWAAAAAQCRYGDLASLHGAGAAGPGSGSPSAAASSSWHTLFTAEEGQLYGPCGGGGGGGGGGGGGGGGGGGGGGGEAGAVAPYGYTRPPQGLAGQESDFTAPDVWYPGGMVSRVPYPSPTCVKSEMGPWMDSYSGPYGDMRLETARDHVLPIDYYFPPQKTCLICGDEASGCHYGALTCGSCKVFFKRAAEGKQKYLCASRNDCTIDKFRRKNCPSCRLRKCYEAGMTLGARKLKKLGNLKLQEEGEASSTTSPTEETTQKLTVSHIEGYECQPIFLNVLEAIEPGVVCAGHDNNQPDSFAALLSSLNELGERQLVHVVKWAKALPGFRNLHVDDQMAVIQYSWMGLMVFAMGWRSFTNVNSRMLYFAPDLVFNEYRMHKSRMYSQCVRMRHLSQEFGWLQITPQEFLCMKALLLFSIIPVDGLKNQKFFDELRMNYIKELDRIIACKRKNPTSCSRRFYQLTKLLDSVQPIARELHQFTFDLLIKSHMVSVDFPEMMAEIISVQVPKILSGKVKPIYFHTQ
Test: Androgen Receptor-Mediated Transcriptional Assay (ARE-luciferase reporter in transiently transfected CV-1 cells)
Assay type: cell-based
Conditions: not given
Description: Androgen Receptor-Mediated Transcriptional Assay Summary
CV-1 cells (American Tissue Culture Collection cat# CCL-70) were expanded in Growth Media and transiently transfected in T225 cm^2 flasks with a full length human Androgen Receptor (AR) cDNA in the pcDNA3 expression vector and a human Androgen Response Element (ARE)-luciferase cDNA in the pGL3 vector (both from Invitrogen). DNA (μg) and Lipofectamine (μl) at a ratio of 1:3 were incubated with the cells in a total volume of 55 mL Basal Media for 4 hours. Cells were harvested by trypsinization and frozen back (−150° C. cryomed) at a concentration of 4.3 million cells/mL.
On the day of the assay, frozen cells were thawed and re-suspended in Re-suspension Media and plated at 40,000 cells/well (in 100 μL volume) in 96 well white plates and were incubated for at least 4 h at 37° C., 5% CO2. After incubation, cells were treated with the compounds to be screened. 10 mM stocks of the compounds were serially diluted 1:10 in 100% DMSO followed by an additional 1:100 dilution in Assay Media. These dilution series were added to the cell plates resulting in a further 1:10 dilution and a final % DMSO of 0.1%. The vehicle control wells also contained this dilution of DMSO and the positive control wells contained […] (DHT) as an AR agonist at final concentration of 0.3 nM in 0.1% DMSO. Cells were incubated for 16-18 hours at 37° C. and 5% CO2. Then the culture media was removed from and the cells were lysed in 20 μL of cell lysis reagent for 5 minutes at room temperature. 50 μL of luciferase reagent was added to each well and luminescence, over 5 seconds, was measured.
EC50 (half maximal effective concentration) was calculated from concentration series plots which generated sigmoidal curves. Xlfit software was used to plot the best fit of the % effect vs concentration and to calculate the EC50.
Reagents and Materials used in the Androgen Receptor-Mediated Transcriptional Assay include the following: • Growth Media—DMEM/high glucose—10% FBS: 500 ml phenol red DMEM/high glucose (Gibco, Grand Island N.Y., cat #10569-010), 10% non heat-inactivated Fetal Bovine Serum (FBS) (Atlanta Biologicals, Norcross Ga., cat #S-12450), 1% Nonessential Amino Acids (Gibco, cat #11140-050), 1% Penicillin-Streptomycin (Gibco, cat #15140-122) • Basal Media—phenol red free DMEM/high glucose (Gibco, cat #31053-028)+1% Na Pyruvate (Gibco, cat #11360-070), 1% Nonessential Amino Acids (Gibco, cat #11140-050), 1% GlutaMAX-I (Gibco, cat #35050-061) • Re-suspension Media—basal media+1% Penicillin-Streptomycin (Gibco, cat #15140-122) • Assay Media—basal media+5% charcoal stripped FBS (HyClone, Logan Utah, Cat #SH30068)+1% Penicillin-Streptomycin (Gibco, cat #15140-122) • Cell Lysis Reagent—Promega, Cat #PAE1531 • Luciferase Reagent—Promega, Cat #PAE1483

Molecule | EC50 [nM]
CC[C@H]1CNS(=O)(=O)N1c1ccc2c(C#N)nccc2c1 (single isomer, unassigned) [Compound 2] | 18
C[C@H]1CNS(=O)(=O)N1c1ccc2c(C#N)cccc2c1 (single isomer, unassigned) [Compound 9] | 4
CCN1C[C@@H](C)CN(c2ccc3c(C#N)nccc3c2)S1(=O)=O (single isomer, unassigned) [Compound 16] | 262
C[C@H]([C@@H](O)C(F)(F)F)N(C)c1ccc2c(C#N)nccc2c1 (single isomer, unassigned) [Compound 26] | 0.1
C[C@H]([C@H](O)C(F)(F)F)N(C)c1ccc2c(C#N)nccc2c1 (single isomer, unassigned) [Compound 27] | 12.9
N#Cc1nccc2cc(N3CCCC[C@@H]3[C@@H](O)C(F)(F)F)ccc12 (single isomer, unassigned) [Compound 28] | 61.5
N#Cc1nccc2cc(N3CCCC[C@@H]3[C@H](O)C(F)(F)F)ccc12 (single isomer, unassigned) [Compound 29] | 0.02
N#Cc1nccc2cc(N3C(=O)CC[C@@H]3[C@H](O)C(F)(F)F)ccc12 (single isomer, unassigned) [Compound 32] | 84.3
N#Cc1nccc2cc(N3C(=O)CC[C@H]3[C@H](O)C(F)(F)F)ccc12 (single isomer, unassigned) [Compound 33] | 231
N#Cc1nccc2cc(N3CCC[C@@H]3[C@@H](O)C(F)(F)F)ccc12 (single isomer, unassigned) [Compound 34] | 0.1
N#Cc1nccc2cc(N3CCC[C@@H]3[C@H](O)C(F)(F)F)ccc12 (single isomer, unassigned) [Compound 35] | 7.4
N#Cc1nccc2cc(N3CCC[C@H]3[C@H](O)C(F)(F)F)ccc12 (single isomer, unassigned) [Compound 36] | 120
N#Cc1nccc2cc(N3CCC[C@H]3[C@@H](O)C(F)(F)F)ccc12 (single isomer, unassigned) [Compound 37] | 9.1
C[C@H]1CC[C@@H]([C@H](O)C(F)(F)F)N1c1ccc2c(C#N)nccc2c1 (single isomer, unassigned) [Compound 38] | 187
C[C@H](O)[C@H]1CC[C@@H](C)N1c1ccc2c(C#N)nccc2c1 (single isomer, unassigned) [Compound 39] | 37.3
C[C@H]1CNS(=O)(=O)N1c1ccc2c(C#N)nccc2c1 [Compound 1, 6-[(3S)-3-methyl-1,1-dioxido-1,2,5-thiadiazolidin-2-yl]isoquinoline-1-carbonitrile] | 15
CC1(C)CNS(=O)(=O)N(c2ccc3c(C#N)nccc3c2)C1 [Compound 13, 6-(4,4-dimethyl-1,1-dioxido-1,2,6-thiadiazinan-2-yl)isoquinoline-1-carbonitrile] | 0.7
N#Cc1nccc2cc(N3CC4(CC4)CNS3(=O)=O)ccc12 [Compound 14, 6-(6,6-dioxido-6-thia-5,7-diazaspiro[2.5]oct-5-yl)isoquinoline-1-carbonitrile] | 22
C[C@@H](Nc1ccc2c(C#N)nccc2c1)[C@H](O)C(F)(F)F [Compound 23, 6-{[(2R,3S)-4,4,4-trifluoro-3-hydroxybutan-2-yl]amino}isoquinoline-1-carbonitrile] | 5.1

Same assay, conditions: CV-1 cells transfected with human AR and ARE-luciferase; 16-18 hours incubation; luminescence; read-out: EC50 Values for Compounds 1-22 from Androgen Receptor-Mediated Transcriptional Assay

Molecule | EC50 [nM]
6-[(4S)-4-(3-methylphenyl)-1,1-dioxido-1,2,6-thiadiazinan-2-yl]isoquinoline-1-carbonitrile [Compound 20] | 8
6-[(4S)-4-ethyl-1,1-dioxido-1,2,6-thiadiazinan-2-yl]isoquinoline-1-carbonitrile [Compound 21] | 8
CC1CCN(c2ccc3c(C#N)nccc3c2)S(=O)(=O)N1 (racemic) [Compound 17, 6-(5-methyl-1,1-dioxido-1,2,6-thiadiazinan-2-yl)isoquinoline-1-carbonitrile] | 16
CCCC1CNS(=O)(=O)N(c2ccc3c(C#N)nccc3c2)C1 (racemic) [Compound 22, 6-(1,1-dioxido-4-propyl-1,2,6-thiadiazinan-2-yl)isoquinoline-1-carbonitrile] | 569
N#Cc1nccc2cc(N3[C@H](CC(F)(F)F)CNS3(=O)=O)ccc12 (single isomer, unassigned) [Compound 3] | 79
N#Cc1nccc2cc(N3[C@H](CCc4ccccc4)CNS3(=O)=O)ccc12 (single isomer, unassigned) [Compound 4] | 22
N#Cc1nccc2cc(N3[C@H](c4cccc(C(F)(F)F)c4)CNS3(=O)=O)ccc12 (single isomer, unassigned) [Compound 6] | 10
N#Cc1nccc2cc(N3[C@@H](c4ccc(Cl)cc4)CNS3(=O)=O)ccc12 (single isomer, unassigned) [Compound 7] | 22
Cc1cccc(C[C@@H]2CNS(=O)(=O)N(c3ccc4c(C#N)nccc4c3)C2)c1 (single isomer, unassigned) [Compound 15] | 195
Cc1ccc([C@H]2CNS(=O)(=O)N(c3ccc4c(C#N)nccc4c3)C2)cc1 (single isomer, unassigned) [Compound 18] | 20
Cc1ccc([C@@H]2CNS(=O)(=O)N(c3ccc4c(C#N)nccc4c3)C2)cc1 (single isomer, unassigned) [Compound 19] | 177
C[C@H]1CN(C)S(=O)(=O)N1c1ccc2c(C#N)nccc2c1 [Compound 5] | 5
C[C@H]1CCS(=O)(=O)N1c1ccc2c(C#N)nccc2c1 [Compound 8, 6-[(3S)-3-methyl-1,1-dioxido-1,2-thiazolidin-2-yl]isoquinoline-1-carbonitrile] | 271
C[C@@H]1CNS(=O)(=O)N(c2ccc3c(C#N)nccc3c2)C1 [Compound 10, 6-[(4R)-4-methyl-1,1-dioxido-1,2,6-thiadiazinan-2-yl]isoquinoline-1-carbonitrile] | 0.4
C[C@H]1CNS(=O)(=O)N(c2ccc3c(C#N)nccc3c2)C1 [Compound 11, 6-[(4S)-4-methyl-1,1-dioxido-1,2,6-thiadiazinan-2-yl]isoquinoline-1-carbonitrile] | 687
N#Cc1nccc2cc(N3C[C@H](c4ccccc4)CNS3(=O)=O)ccc12 [Compound 12] | 217

Same assay, conditions: CV-1 cells transfected with human AR and ARE-luciferase; 16-18 hours incubation; luminescence; read-out: EC50 Values for Compounds 23-39 from Androgen Receptor-Mediated Transcriptional Assay

Molecule | EC50 [nM]
6-{(2R,5R)-2-[(1R)-1-hydroxyethyl]-5-methylpyrrolidin-1-yl}isoquinoline-1-carbonitrile [Compound 31] | 474

From patent US9328104B2, “Selective androgen receptor modulators” (Pfizer Inc., priority 2012, dated 2016)
